# Assay results from patent US10125135B2, “Chemical compounds” (AstraZeneca AB, priority 2016, dated 2018).
# Legend:
# [1] = logD shake flask, 1-octanol/aqueous buffer; assay type: physicochemical; details: pH 7.4
# From the text: The lipophilicity of a drug is an important physical property which may influence many biological and metabolic properties of a compound. The distribution coefficient between 1-octanol and aqueous buffer, Log DO/W, at pH 7.4, is the most commonly used measurement of the lipophilicity of a compound. The current method for measurement of Log DO/W is based on the traditional shake flask technique, but with the modification of measuring compounds in mixtures of ten at a time using UPLC with quantitative mass spectrometry (MS) as a method to measure the relative octanol and aqueous concentrations. […] An additional QC sample Caffeine, with low Log D, are used and randomly placed in all runs. The method has been thoroughly validated against the previous shake flask methodologies.
# [2] = target: ERα receptor in MCF-7 human ductal carcinoma breast cell line (Homo sapiens (Human), UniProt P03372); experiment: MCF-7 ER down regulation assay (immuno-fluorescence); assay type: cell-based; details: MCF-7 cells, 18-22 hours incubation; read-out: ER down regulation IC50 value
# Chain of ERα receptor in MCF-7 human ductal carcinoma breast cell line (P03372 whole entry): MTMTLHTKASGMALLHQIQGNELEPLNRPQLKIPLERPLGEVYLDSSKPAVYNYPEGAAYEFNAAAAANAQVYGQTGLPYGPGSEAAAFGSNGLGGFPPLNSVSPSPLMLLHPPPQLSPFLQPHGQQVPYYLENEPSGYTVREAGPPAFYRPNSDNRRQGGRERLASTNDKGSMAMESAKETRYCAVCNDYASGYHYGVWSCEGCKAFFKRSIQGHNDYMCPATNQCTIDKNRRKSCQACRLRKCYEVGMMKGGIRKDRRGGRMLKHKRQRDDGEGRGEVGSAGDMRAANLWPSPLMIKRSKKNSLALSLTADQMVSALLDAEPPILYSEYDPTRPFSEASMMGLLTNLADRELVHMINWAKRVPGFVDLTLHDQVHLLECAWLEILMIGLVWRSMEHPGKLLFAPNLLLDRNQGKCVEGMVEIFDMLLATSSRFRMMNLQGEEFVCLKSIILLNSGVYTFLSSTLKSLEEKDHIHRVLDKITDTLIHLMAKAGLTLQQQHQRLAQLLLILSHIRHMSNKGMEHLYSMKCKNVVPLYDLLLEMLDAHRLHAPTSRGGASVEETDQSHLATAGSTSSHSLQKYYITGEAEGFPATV
# [3] = Thermodynamic solubility, shake-flask; assay type: physicochemical; details: thermodynamic from solid; aqueous phosphate buffer pH 7.4, 24 hours at 25° C.
# Experimental: The thermodynamic solubility of a research compound is measured under standard conditions. It is a shake-flask approach that uses 10 mM DMSO solutions which are supplied from the Compound Managements liquid store and is a high throughput method. The dried compounds are equilibrated in an aqueous phosphate buffer (pH 7.4) for 24 hours at 25° C., the portion with the dissolved compound is then separated from the remains. The solutions are analyzed and quantified using UPLC/MS/MS, QC-samples are incorporated in each assay-run to ensure the quality of the assay.
# [4] = target: estrogen receptor (ERα) in MCF-7 human breast cancer cell line (Homo sapiens (Human), UniProt P03372); experiment: Western blotting assay, MCF-7 cells; assay type: cell-based; details: 100 nM compound, 48 h; normalised to vehicle (0%) and 100 nM fulvestrant (100%)
# Chain of estrogen receptor (ERα) in MCF-7 human breast cancer cell line (P03372 whole entry): as above
# Experimental: (§1) The ability of compounds to down-regulate estrogen receptor (ER) was assessed by western blotting using human breast cancer cell lines (MCF-7 and CAMA-1). Cells were plated into 12-well tissue culture-treated plates at 0.5×10^6/well in phenol red-free RPMI containing 2 mM L-glutamine and 5% (v/v) charcoal treated foetal calf serum (F6765, Sigma). Cells were incubated with compounds (100 nM) or vehicle control (0.1% DMSO) for 48 h at 37° C., 5% CO2 before washing once with PBS and lysing with 80 μl lysis buffer (25 mM Tris/HCl, 3 mM EDTA, 3 mM EGTA, 50 mM NaF, 2 mM sodium orthovanadate, 0.27 M sucrose, 10 mM β-glycerophosphate, 5 mM sodium pyrophosphate, 0.5% TritonX-100, pH 6.8) on ice.
# (§2) Cells were scraped, sonicated and centrifuged prior to performing a protein assay (DC Bio-Rad Protein kit, 500-0116) and making samples to a protein concentration of 1-2 mg/m1 in lysis buffer containing 1× LDS Sample Buffer (NP0007, Invitrogen) and 1× NuPAGE sample reducing agent (NP0009, Invitrogen). Samples were boiled for 10 min at 95° C. and then frozen at −20° C. until ready for use.
# (§3) 10-20 μg protein was loaded onto 26-well Criterion gels (BioRad 345-0034). Gels were run at 125 V for 1 hr 25 min in running buffer (24 mM Tris Base Sigma, 192 mM Glycine, 3.5 mM SDS, made up in distilled water). Gels were then transferred at 30V for 2 hr in transfer buffer (25 mM Tris, 192 mM Glycine, 20% (v/v) methanol, pH 8.3, made up in distilled water) onto nitrocellulose membrane. The blot was stained with Ponceau S (P7170, Sigma) and cut according to appropriate molecular weight markers.
# (§4) Membranes were blocked for 1 hour at room temp in 5% Marvel (w/v) in phosphate-buffered saline containing 0.05% Tween™ 20 (PBS/Tween). Blots were then incubated with anti-ERα (SP1) rabbit monoclonal antibody (Thermofisher) diluted 1:1000 at 4° C. overnight (with gentle shaking) followed by several washes with PBS/Tween. Secondary anti-rabbit HRP antibody (7074, CST) diluted 1:2000 dilution was incubated for 2 h at room temperature (with gentle shaking) followed by several washes with PBS/Tween. All antibodies were made up in 5% Marvel (w/v) in PBS/Tween.
# (§5) The immunoblots were developed using Pierce WestDura chemiluminescent reagents (Thermo Scientific 34076) and developed/quantified on the G-box using Syngene software. Down-regulation of the ERα receptor was normalised to the vehicle control (0% down-regulation) and the 100 nM fulvestrant control (100% down-regulation) run within the same gel.
# [5] = Human plasma protein binding, equilibrium dialysis (RED); assay type: in vitro ADME; details: dialysis for 18 hours
# Experimental: Human Plasma Protein Binding
# The automated equilibrium dialysis assay in human plasma uses the RED (Rapid Equilibrium Dialysis) Device and sample handling. The assay generally runs over two to three days including delivery of results. After dialysis for 18 hours, plasma and buffer samples are prepared for analysis by liquid chromatography and mass spectrometry. Samples are generally tested in singlicates and quantified by LC/MSMS by using a 7-point calibration curve in plasma. The compounds are pooled together in plasma pools up to 10 compounds. Three reference compounds are used in each run, Propranolol, Metoprolol and Warfarin. Warfarin is used as a control in each pool and Propranolol and Metoprolol are placed randomly in each run. An in-house Excel macro is used for preparation of files for the robot and the mass spectrometer and also used for the calculations of fraction unbound (fu %) in plasma.
# [6] = target: estrogen receptor (ERα) in CAMA-1 human breast cancer cell line (Homo sapiens (Human), UniProt P03372); experiment: Western blotting assay, CAMA-1 cells; assay type: cell-based; details: 100 nM compound, 48 h; normalised to vehicle (0%) and 100 nM fulvestrant (100%)
# Chain of estrogen receptor (ERα) in CAMA-1 human breast cancer cell line (P03372 whole entry): as above
# Experimental: as §1, §2, §3, §4, §5
# ERα receptor = ERα receptor (Homo sapiens (Human), UniProt P03372); details: 500mg monthly dose; cited from earlier work
# Chain of ERα receptor (P03372 whole entry): as above
logD [1],DC50 [2] [pM],solubility at 24 h [3] [µM],MCF7 Western % ER deg vs Fv [4] [%],Human plasma protein binding (% free) [5] [% free],CAMA1 Western % ER deg vs Fv [6] [%],SMILES,turnover of the receptor in patient samples (ERα receptor)
3.4,85,364,100,11,95,"COc1cc(OCCN2CC(CF)C2)ccc1[C@@H]1c2ccc3[nH]ncc3c2C[C@@H](C)N1CC(F)F [Example 7, (6S,8R)-7-(2,2-difluoroethyl)-6-(4-(2-(3-(fluoromethyl)azetidin-1-yl)ethoxy)-2-methoxyphenyl)-8-methyl-6,7,8,9-tetrahydro-3H-pyrazolo[4,3-f]isoquinoline]",
2.4,510,811,87,27,66,"COCC(F)(F)CN1[C@H](c2ccc(OCCN3CC(CF)C3)cn2)c2ccc3[nH]ncc3c2C[C@H]1C [Example 10, (6S,8R)-7-(2,2-difluoro-3-methoxypropyl)-6-(5-(2-(3-(fluoromethyl)azetidin-1-yl)ethoxy)pyridin-2-yl)-8-methyl-6,7,8,9-tetrahydro-3H-pyrazolo[4,3-f]isoquinoline]",
,,,,,,"C[C@]12CC[C@@H]3c4ccc(O)cc4C[C@@H](CCCCCCCCC[S+]([O-])CCCC(F)(F)C(F)(F)F)[C@H]3[C@@H]1CC[C@@H]2O (stereo partly shown) [Fulvestrant, fulvestrant]",less than 50%
